Experimental findings from article PMC9385959, “Mammalian derived lipocalin and secretoglobin respiratory allergens strongly bind ligands with potentially immune modulating properties” (Frontiers in Allergy, 2022) are described below.

A word on the Kd: it is a measure of binding affinity in units of concentration.

Values joined by “and” are separate entries in the source; they are usually repeats but may differ in a detail not shown here. Identical values can stand only once.

One series concerns the target Cav p 1.0101 (Cavia porcellus, UniProt A0A484HM70, S19A). Put plainly: Fluorochrome binding to Cav p 1.0101 (emission spectra and titration). Set-up: species or system guinea pig. Conditions: 5 μM Cav p 1.0101. Here is the method:
(§1) Stock solutions were prepared at a concentration of 10 mM in 100% ethanol for the fluorochromes 1-aminoanthracene (1-AMA), 8-anilino-1-naphthalensulfonic acid (1,8-ANS) and for all ligands, and in 100% methanol for n-phenyl-1-naphthylamine (1-NPN), respectively. Iron catecholate ligands (siderophores) were prepared as previously described ([46]). Fluorochrome-protein complexes were analyzed at an equimolar concentration of 5 μM in PBS with 5% ethanol in a volume of 100 μL per well in black 96-well non-binding microplates (Greiner Bio-One GmbH, Frickenhausen, Germany). Solutions containing only protein or the respective fluorescent probe in PBS with 5% ethanol served as controls. Fluorochrome-protein complexes were incubated with orbital shaking for 10 min at 500 rpm at room temperature (RT) before measurement using the fluorescence reader TECAN Infinite 200 Pro (Tecan Trading AG, Switzerland). Excitation wavelengths were fixed at 380 nm for 1-AMA and 1,8-ANS, and 337 nm for 1-NPN. Fluorescence emission spectra were recorded in 5 nm steps between 420 and 560 nm for 1-AMA and 1,8-ANS and between 380 and 500 nm for 1-NPN. The establishment of fluorescent quenching assay parameters for each allergen is explained in the results Section Fluorescence-quenching assay set up. Binding affinities were analyzed by non-linear regression in GraphPad Prism Version 9.3.1 (GraphPad Software, LLC). […]

In a further series the target is Ory c 2. Put plainly: Fluorochrome binding to Ory c 2 (emission spectra and titration). Set-up: species or system rabbit. Here is the method: as §1, with “LLC). For the ligand competition assays, ligands were added to fluorochrome-allergen complexes with a final buffer composition of 5% ethanol in PBS in a volume of 100 μL and incubated for 30 min at 500 rpm at RT and further equilibrated for another 30 min without shaking before fluorescence measurement.” for “LLC).”
For each allergen, we identified a suitable fluorescence probe by adding equimolar concentrations of either 1-AMA or 1,8-ANS to the recombinant proteins. […] Fluorescence intensities increased 20–60-fold upon binding. […] Respective Kd were calculated after background subtraction (Figure 4B). […]
We evaluated the binding affinities of the fluorochromes to the allergens by dose-dependent titration curves. […]

In another series the target is Ory c 3 (Oryctolagus cuniculus, UniProt Q9GK63+Q9GK67). Put plainly: Fluorochrome binding to Ory c 3 (emission spectra and titration). Details: species or system rabbit. Particulars: 5 μM Ory c 3. As for the experimental part: as §1
Ory c 3, sequence (Q9GK67 entry or part of it): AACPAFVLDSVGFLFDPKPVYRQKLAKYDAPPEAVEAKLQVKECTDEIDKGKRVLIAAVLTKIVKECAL
Ory c 3, sequence (Q9GK63 entry or part of it): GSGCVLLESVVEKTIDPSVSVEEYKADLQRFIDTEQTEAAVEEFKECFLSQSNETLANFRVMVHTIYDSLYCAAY
The next series addresses T1, Fel d 4 (Felis catus, UniProt Q5VFH6).
T1 construct: polyhistidine tag (C); made in house; host or cells: E. coli Rosetta-gami 2
T1 sequence (Q5VFH6 16-186): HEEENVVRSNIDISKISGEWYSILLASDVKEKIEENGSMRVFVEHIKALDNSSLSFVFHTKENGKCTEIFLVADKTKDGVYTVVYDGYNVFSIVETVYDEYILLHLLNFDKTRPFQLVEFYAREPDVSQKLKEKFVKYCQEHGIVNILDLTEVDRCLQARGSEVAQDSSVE
Put plainly: Fluorochrome binding to Fel d 4 (emission spectra and titration). Set-up: species or system cat. Conditions: 5 μM Fel d 4 with 5 μM fluorochrome. As for the experimental part:
(§2) Stock solutions were prepared at a concentration of 10 mM in 100% ethanol for the fluorochromes 1-aminoanthracene (1-AMA), 8-anilino-1-naphthalensulfonic acid (1,8-ANS) and for all ligands, and in 100% methanol for n-phenyl-1-naphthylamine (1-NPN), respectively. Iron catecholate ligands (siderophores) were prepared as previously described ([46]). Fluorochrome-protein complexes were analyzed at an equimolar concentration of 5 μM in PBS with 5% ethanol in a volume of 100 μL per well in black 96-well non-binding microplates (Greiner Bio-One GmbH, Frickenhausen, Germany). Solutions containing only protein or the respective fluorescent probe in PBS with 5% ethanol served as controls. Fluorochrome-protein complexes were incubated with orbital shaking for 10 min at 500 rpm at room temperature (RT) before measurement using the fluorescence reader TECAN Infinite 200 Pro (Tecan Trading AG, Switzerland). Excitation wavelengths were fixed at 380 nm for 1-AMA and 1,8-ANS, and 337 nm for 1-NPN. Fluorescence emission spectra were recorded in 5 nm steps between 420 and 560 nm for 1-AMA and 1,8-ANS and between 380 and 500 nm for 1-NPN. The establishment of fluorescent quenching assay parameters for each allergen is explained in the results Section Fluorescence-quenching assay set up. Binding affinities were analyzed by non-linear regression in GraphPad Prism Version 9.3.1 (GraphPad Software, LLC). For the ligand competition assays, ligands were added to fluorochrome-allergen complexes with a final buffer composition of 5% ethanol in PBS in a volume of 100 μL and incubated for 30 min at 500 rpm at RT and further equilibrated for another 30 min without shaking before fluorescence measurement.
(§3) We established four specific parameters for each allergen to set up a fluorescence quenching assay for screening a large array of potential ligands: (i) a compatible fluorochrome, (ii) the optimal emission wavelength to analyze the fluorescence intensities of the fluorochrome-allergen complex, (iii) the binding affinities of the fluorochrome-allergen complex (Kd values) and (iv) optimal fluorochrome concentrations (EC50 values).
(§4) For each allergen, we identified a suitable fluorescence probe by adding equimolar concentrations of either 1-AMA or 1,8-ANS to the recombinant proteins. […] 1-AMA was chosen for the guinea pig lipocalin Cav p 1 isoallergens, rabbit lipocalin Ory c 2, and rabbit secretoglobin Ory c 3. Fluorescence intensities increased 20–60-fold upon binding. While the emission maxima shifted from 565 to 485 nm for lipocalin fluorochrome-allergen pairs, the blue shift was less pronounced for the Ory c 3 secretoglobin-1-AMA complex to 505 nm (Figure 4B). […] Respective Kd were calculated after background subtraction (Figure 4B). As ethanol gave a high background with 1-NPN, these experiments were carried out with methanol to […] the signal-to-noise-ratio.
(§5) We evaluated the binding affinities of the fluorochromes to the allergens by dose-dependent titration curves. Increasing fluorochrome concentrations were added to a fixed protein concentration of 5 μM until saturation (Figure 5). Fluorescence intensities were recorded at specific emission maxima for each fluorochrome-allergen complex, determined using the emission spectra shown in Figure 4. We analyzed the specific binding of fluorochrome-allergen complexes by non-linear regression and calculated equilibrium dissociation constants (Kd) and EC50 values (Table 2). EC50 values are equal to fluorochome concentrations in which half of the allergen binding sites are saturated and these concentrations were used in subsequent ligand competition assays. We chose a one-site specific binding model for all allergens, except for human LCN1, where multiple binding site analysis emerged as the model of best fit and two Kd values were calculated. Evidence for internal and external binding sites for 1,8-ANS and LCN1 were already reported ([58]).

The target of a further series is T2, Fel d 1 (Felis catus, UniProt P30438+P30440).
T2 construct: polyhistidine tag (C); made in house; host or cells: E. coli Rosetta-gami 2
T2 sequence (P30438+P30440 with tags, fused parts or gaps): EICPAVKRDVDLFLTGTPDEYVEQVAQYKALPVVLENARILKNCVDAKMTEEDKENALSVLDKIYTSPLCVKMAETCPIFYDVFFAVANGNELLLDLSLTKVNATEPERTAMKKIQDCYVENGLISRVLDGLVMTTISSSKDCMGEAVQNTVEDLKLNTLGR
Put plainly: Fluorochrome binding to Fel d 1 (emission spectra and titration). Set-up: species or system cat. Particulars: 5 μM Fel d 1 with 5 μM fluorochrome. As for the experimental part:
as §2, §3, §4, §5

A further series concerns the target T3, Can f 6 (Canis lupus familiaris, UniProt H2B3G5).
T3 construct: polyhistidine tag (C); made in house; host or cells: E. coli Rosetta-gami 2
T3 sequence (H2B3G5 16-190): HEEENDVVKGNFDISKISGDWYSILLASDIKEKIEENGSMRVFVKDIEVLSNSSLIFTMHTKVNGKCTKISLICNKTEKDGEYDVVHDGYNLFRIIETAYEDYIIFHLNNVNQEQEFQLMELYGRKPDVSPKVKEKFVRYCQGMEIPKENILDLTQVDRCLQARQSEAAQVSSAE
Put plainly: Fluorochrome binding to Can f 6 (emission spectra and titration). Set-up: species or system dog. Particulars: 5 μM Can f 6 with 5 μM fluorochrome. As for the experimental part:
as §2, §3, §4, §5

For the next series, the target named is Cav p 1.0201 (Cavia porcellus, UniProt A0A484HRI4). Put plainly: Fluorochrome binding to Cav p 1.0201 (emission spectra and titration). Particulars: 5 μM Cav p 1.0201. Set-up: species or system guinea pig. As for the experimental part: as §1
Cav p 1.0201, sequence (A0A484HRI4 entry or part of it): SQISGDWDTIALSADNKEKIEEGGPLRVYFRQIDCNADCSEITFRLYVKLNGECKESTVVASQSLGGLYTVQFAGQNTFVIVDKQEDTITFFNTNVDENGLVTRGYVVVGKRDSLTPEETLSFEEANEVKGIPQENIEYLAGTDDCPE
A short description of series [1]: Thermal stability by circular dichroism spectroscopy with temperature ramping. It is filed as physicochemical. Particulars: temperature ramping 20–95°C, 10 μmol/L protein. As for the experimental part:
Secondary protein structure formation and thermal stability of the recombinant proteins were determined by circular dichroism (CD) spectroscopy. Recombinant proteins were diluted with ultrapure water to a concentration of 10 μmol/L in a volume of 300 μL to measure their CD spectra using the Chirascan CD spectrometer (Applied Photophysics). Far-ultraviolet CD spectra were recorded at 180–260 nm (0.8 nm bandwidth, 0.4 s interval, 3 repeats) in a cuvette of 0.1 cm path length. Thermal sensitivity was assessed by ramping temperatures (20–95°C) with an internal temperature probe and continuous CD-signal measurements (ramping rate 0.82°C per minute, no repeats). After 10 min at 95°C another CD spectrum was recorded with 3 repeats, then the temperature was decreased back to 20°C for a final scan with 3 repeats to analyze the refolding capacity. The read-out was converted with respective protein details, such as molecular weight and number of amino acids, into degrees^*cm2^*dmol−1. Chirascan Global 3 Analysis Software (Applied Photophysics) and DichroWeb online server ([36]) with solutions from the CDSSTR method and reference data set 7 ([37]) were used to analyze and interpret CD spectra, measured as a function of temperature.
(In general: Circular dichroism is the unequal absorption of left and right circularly polarised light.)

Where [2] appears, read: one-site specific binding, read-out: Fluorochrome dissociation constant Kd.
Setting [3] is: read-out: EC50 fluorochrome concentration.

Cav p 1.0101, sequence (A0A484HM70 entry or part of it S19A): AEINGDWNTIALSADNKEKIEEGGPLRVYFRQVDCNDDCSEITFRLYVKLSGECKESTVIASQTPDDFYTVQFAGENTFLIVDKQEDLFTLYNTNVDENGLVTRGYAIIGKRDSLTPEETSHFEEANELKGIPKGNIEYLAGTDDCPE

Turning to `Nc1cccc2cc3ccccc3cc12` [1-AMA, 1-aminoanthracene], the dissociation constant (Kd) on Cav p 1.0101 (setting [2]) is 6.57 µM and 6.6 µM; on Ory c 2 (5 μM Ory c 2, one-site specific binding, read-out: Fluorochrome dissociation constant Kd) it was 5.7 µM; on Ory c 3 (setting [2]) it was 9 µM; on Cav p 1.0201 (setting [2]), 13.9 µM. In addition, the EC50 at Cav p 1.0101 (setting [3]) is 4.95 µM and 5 µM; on Ory c 2 (5 μM Ory c 2, read-out: EC50 fluorochrome concentration) it was 4.2 µM; at Ory c 3 (setting [3]) it was 6.9 µM; on Cav p 1.0201 (setting [3]), 9.2 µM. Further, the “Increase of fluorescence intensity upon binding” value is reported as 20–60 fold with Ory c 2 (5 μM Ory c 2 with 5 μM fluorochrome, range stated for four allergens together); “neither reacted” at Fel d 4; “negligible interactions” at Fel d 1; “neither reacted” on Can f 6.

The compound “LCN1: recombinant human lipocalin-1 (tear lipocalin, von Ebner's gland protein), non-allergenic control, produced in E. coli” gave a Melting point in series [1] of 74.8 ± 0.2 C°.
